Measured values reported in patent US10072055B2, “Anti-inflammatory pharmaceutical products” (Resother Pharma APS, priority 2011, dated 2018).
Entries after “also recorded” stand apart in the source; their conditions may differ. Ends that are not written are not given here.

Assays:
[1] = test system: PMN interaction to an activated HUVEC monolayer; assay: Flow chamber assay: PMN interaction with activated HUVEC monolayer (capture, rolling, adhesion); format: cell-based, human; conditions: for inhibition of PMN/neutrophil-endothelium interactions in flow chamber: concentration not given
Text: FIGS. 2A-2C are a series of charts reporting data from flow chamber analysis to determine the inhibitory capability of five polypeptides of the present disclosure (Pep57 (SEQ ID NO:12); Pep59 (SEQ ID NO:13), Pep60 (SEQ ID NO:15), Pep83 (SEQ ID NO:16) and Pep84 (SEQ ID NO:14)) and Ac-ANAX1(2-26)-OH to reduce PMN interaction to an activated HUVEC monolayer.
FIGS. 4A-4C are a series of bar charts reporting percent inhibition provided by three polypeptides (UGP022 (SEQ ID NO:5); UGP025 (SEQ ID NO:7) and UGP026 (SEQ ID NO:8)) of the present disclosure, at different concentrations, on three different parameters (capture—FIG. 4A; rolling—FIG. 4B; and adhesion—FIG. 4C).
FIGS. 2A-2C are a series of charts reporting data from flow chamber analysis to determine the inhibitory capability of five polypeptides (Pep57 (SEQ ID NO: 12); Pep59 (SEQ ID NO: 13), Pep60 (SEQ ID NO: 15), Pep83 (SEQ ID NO: 16) and Pep84 (SEQ ID NO: 14)) of the present disclosure and Ac-ANAX1(2-26)-OH to reduce PMN interaction to an activated HUVEC monolayer. PMNs (5×10^6) were incubated with 10 μM of the various peptides for 10 min at 37° C. The PMNs were then flowed for 8 min at 1 dyne/cm^2, prior to quantifying the degree of PMN interaction with the HUVECs, both as PMN capture (FIG. 2A), adhesion (FIG. 2B) and rolling (FIG. 2C). […] Data are mean±SEM of 3 independent experiments (with distinct PMN and HUVEC preparations); *=P<0.05 vs. CT group, data analyzed using one way ANOVA.
FIGS. 4A-4C make a direct comparison of the activities of UGP022 (SEQ ID NO:5), UGP025 (SEQ ID NO: 7) and UGP026 (SEQ ID NO: 8) in the flow chamber assay, presenting the degree of inhibition on the three parameters under analysis (capture (FIG. 4A); rolling (FIG. 4B) and adhesion (FIG. 4C)).

FPR2 = biological target: T1, FPR2 (Homo sapiens, UniProt P25090); assay: FPR2 activation (ERK phosphorylation and intracellular calcium fluxes); format: cell-based
T1 sequence (P25090 1-351): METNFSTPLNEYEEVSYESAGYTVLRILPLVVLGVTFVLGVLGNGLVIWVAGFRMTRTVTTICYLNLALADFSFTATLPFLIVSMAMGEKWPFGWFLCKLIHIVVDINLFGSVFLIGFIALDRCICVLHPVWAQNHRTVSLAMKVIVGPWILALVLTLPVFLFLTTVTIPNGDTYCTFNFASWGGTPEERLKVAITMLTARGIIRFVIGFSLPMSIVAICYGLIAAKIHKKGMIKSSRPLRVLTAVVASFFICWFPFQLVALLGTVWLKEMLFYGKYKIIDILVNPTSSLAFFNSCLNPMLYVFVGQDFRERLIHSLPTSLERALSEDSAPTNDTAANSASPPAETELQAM

[2] = test system: leukocyte recruitment into the inflamed airpouch; assay: Mouse IL-1β air-pouch inflammation model (leukocyte migration); format: in vivo; conditions: mouse air-pouch
Procedure: FIG. 3A and FIG. 3B are a series of bar charts comparing the anti-inflammatory effects of three polypeptides (Pep57 (SEQ ID NO:12); Pep59 (SEQ ID NO:13) and Pep84 (SEQ ID NO:14)) of the present disclosure versus a vehicle-only control.
FIG. 3A and FIG. 3B are a series of bar charts comparing the anti-inflammatory effects of three polypeptides (Pep57 (SEQ ID NO: 12); Pep59 (SEQ ID NO: 13) and Pep84 (SEQ ID NO: 14)) of the present disclosure versus a vehicle-only control. Mice received 200 μl i.v. of saline+DMSO or a dose of 50 μg per animal of one of the three Ac2-26 derived peptides, immediately before the local injection of mouse IL-1β into 6-day-old airpouches. The extent of cell migration was determined 4 h later, following airpouch washing and staining of migrated cells with Gr1 marker. […] Data are mean±SEM of 5 mice per group. *P<0.05 vs. vehicle group (one way ANOVA).

FPR1 = biological target: T2, FPR1 (Homo sapiens, UniProt P21462); assay: FPR1 activation (ERK phosphorylation and intracellular calcium fluxes); format: cell-based
T2 sequence (P21462 1-350): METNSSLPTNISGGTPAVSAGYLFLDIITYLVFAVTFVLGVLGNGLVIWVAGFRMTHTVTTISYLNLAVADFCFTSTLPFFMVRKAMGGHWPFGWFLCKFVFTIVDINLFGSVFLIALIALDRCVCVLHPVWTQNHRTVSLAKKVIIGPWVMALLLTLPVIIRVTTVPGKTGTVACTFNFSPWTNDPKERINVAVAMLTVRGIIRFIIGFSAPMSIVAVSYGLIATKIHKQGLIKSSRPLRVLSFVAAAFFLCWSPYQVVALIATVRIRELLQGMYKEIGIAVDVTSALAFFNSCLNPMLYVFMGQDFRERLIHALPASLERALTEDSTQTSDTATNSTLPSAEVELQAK

[3] = test system: inflamed microcirculation; assay: Inflamed microcirculation in vivo; set-up: species or system murine

Row | Substance | inhibition of PMN/neutrophil-endothelium interactions in flow chamber [1] | activation of FPR2 (FPR2) | inhibition of leukocyte infiltration/recruitment in air-pouch model [2] | lowest concentration with significant anti-inflammatory effect on human PMN ([1]; human PMN) | activation of FPR1 (FPR1) | anti-inflammatory properties in the inflamed microcirculation [3] | activity in flow chamber assay at 100 fM ([1]; 100 fM) | activity in flow chamber assay at the higher concentrations tested ([1]; higher concentrations)
1 | AMVSEFLKQAWFIENEEQEYVQTLKSSKGGPGSAVSPYPTFNPSSDVAA-NH2 [UGP026, Leu25-ANXA1(2-50)-NH2] | able to reduce the number of human PMNs interacting with an activated endothelium, acting specifically through the FPR2 receptor |  |  |  |  |  |  | 
2 | AMVSEFLKQAWFIENEEQEYVQTVKSSKGGPGSAVSPYPTFNPSSDVAA-NH2 [UGP022, ANXA1(2-50)-NH2] | more potent than either the UGP021 peptide; also recorded: able to reduce the number of human PMNs interacting with an activated endothelium, acting specifically through the FPR2 receptor | could activate both FPR1 and FPR2 | more potent than either the UGP021 peptide; also recorded: the more potent at inhibiting leukocyte recruitment into the inflamed airpouch | 1 pM | could activate both FPR1 and FPR2 | potency equivalent to human recombinant Annexin A1 |  | 
3 | AMVSEFLKQAWFIENEEQEYVQTLKSSKGGPGSAVSPYPTFNPSSDV-NH2 [UGP025, Leu25-ANXA1(2-48)-NH2] | able to reduce the number of human PMNs interacting with an activated endothelium, acting specifically through the FPR2 receptor |  |  |  |  |  | slightly more active at the 100 fM concentration when compared to the UGP022 peptide | less active at the higher concentrations tested
